Measurements published in patent US11806342B2, “Diiodohydroxyquinoline for the treatment of clostridium difficile infection” (Purdue Research Foundation, priority 2019, dated 2023).
In brackets after ≈: the same amount, converted by molar mass.

Legend:
Format in all cases: cell-based, Clostridium difficile
C. difficile NR-49277 = assay: Spore inhibition assay; details: five days
Method: (§1) The spore inhibition assay was performed as described in previous reports to investigate the effect of diiodohydroxyquinoline on C. difficile spore formation. Briefly, […], the bacterial suspension was split into microcentrifuge tubes and drugs were added (in triplicates) at concentrations equal to ½×MIC or 1×MIC. Tubes were then, incubated anaerobically for five days at 37° C. Thereafter, an aliquot from each tube was diluted and plated on BHIS agar plates supplemented with 0.1% taurocholic acid, to count the total bacterial counts (vegetative bacteria+spores). The remaining solution was centrifuged, and the pellet was suspended in PBS, stored overnight at 4° C., and subsequently shock-heated at 70° C. for 30 minutes to kill the vegetative cells. The resulting solution was serially diluted and plated to determine the heat-resistant spore counts. Spore inhibition assay was performed as described in previous reports to investigate the effect of DIHQ on C. difficile spore formation. Briefly, log-phase cultures of C. difficile strains (ATCC BAA-1870, ATCC 43255, and NR-49277) were diluted in BHIS to an initial density of ˜10^6 CFU/mL. Afterwards, the bacterial suspension was split in small tubes and the drugs were added (in triplicates) at concentrations equal to ½×MIC or 1×MIC. Tubes were then incubated anaerobically for 5 days at 37° C. After that, an aliquot from each tube was diluted and plated on BHIS agar plates supplemented with 0.1% taurocholic acid, to count the total bacterial count (vegetative bacteria+spores). The remaining solution was centrifuged, and the pellet was suspended in PBS and stored overnight at 4° C. then shock heated at 70° C. for 30 minutes to kill the vegetative cells. The resulting solution was serially diluted and plated to determine the heat-resistant spore counts.

[1] = system: C. difficile ATCC BAA-1870; assay: Spore inhibition assay; details: five days
Method: as §1

C. difficile ATCC 43255 = assay: Spore inhibition assay; details: five days
Method: as §1

C. difficile P19 = assay: Checkerboard assay, DIHQ with metronidazole or vancomycin
Method: (§2) Interactions between diiodohydroxyquinoline and the anticlostridial drugs (metronidazole and vancomycin) against Clostridium difficile clinical isolates. […] The fractional inhibitory concentration index (ΣFIC) was calculated for each interaction. Interactions where the ΣFIC index was ≤0.5 were categorized as synergistic (SYN).

C. difficile ATCC 1801 = assay: as above
Method: as §2

C. difficile P11 [2] = assay: as above
Method: as §2

C. difficile I6 = assay: as above
Method: as §2

C. difficile ATCC 9689 = assay: as above
Method: as §2

C. difficile P30 = assay: as above
Method: as §2

C. difficile P11 [3] = assay: MIC and MBC, broth microdilution; details: Clostridioides difficile, C. difficile P11
Summary of the method: (§3)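 After the MIC read, contents of clear wells are spotted onto BHIS agar plates. The bactericidal endpoint is the lowest drug level achieving 99.9% growth reduction; MIC50 and MIC90 denote concentrations inhibiting half and nine-tenths of the isolate panel.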

C. difficile P2 = assay: MIC and MBC, broth microdilution; details: Clostridioides difficile, C. difficile P2
Summary of the method: as §3

C. difficile NR-49286 = assay: MIC and MBC, broth microdilution; details: Clostridioides difficile, NR49286, C. difficile NR-49286
Summary of the method: as §3

C. difficile P13 = assay: MIC and MBC, broth microdilution; details: Clostridioides difficile, C. difficile P13
Summary of the method: as §3

C. difficile NR-49290 = assay: MIC and MBC, broth microdilution; details: Clostridioides difficile, NR49290, C. difficile NR-49290
Summary of the method: as §3

C. difficile P1 = assay: MIC and MBC, broth microdilution; details: Clostridioides difficile, C. difficile P1
Summary of the method: as §3

[4] = system: C. difficile ATCC BAA-1870; assay: MIC and MBC, broth microdilution; details: Clostridioides difficile, ATCCBAA1870, C. difficile ATCC BAA-1870
Summary of the method: as §3

C. difficile P7 = assay: MIC and MBC, broth microdilution; details: Clostridioides difficile, C. difficile P7
Summary of the method: as §3

C. difficile ATCC 700057 = assay: MIC and MBC, broth microdilution; details: Clostridioides difficile, ATCC700057, C. difficile ATCC 700057
Summary of the method: as §3

C. difficile I2 = assay: MIC and MBC, broth microdilution; details: Clostridioides difficile, C. difficile I2
Summary of the method: as §3

[5] = DIHQ with metronidazole, C. difficile P19
[6] = DIHQ with vancomycin, C. difficile P19
[7] = DIHQ with metronidazole, C. difficile ATCC 1801
[8] = DIHQ with vancomycin, C. difficile ATCC 1801
[9] = DIHQ with metronidazole, C. difficile P11
[10] = DIHQ with vancomycin, C. difficile P11
[11] = DIHQ with metronidazole, C. difficile I6
[12] = DIHQ with vancomycin, C. difficile I6
[13] = DIHQ with metronidazole, C. difficile ATCC 9689
[14] = DIHQ with vancomycin, C. difficile ATCC 9689
[15] = DIHQ with metronidazole, C. difficile P30
[16] = DIHQ with vancomycin, C. difficile P30

Oc1c(I)cc(I)c2cccnc12 [DIHQ, 5,7-diiodoquinolin-8-ol]
reduction in spore count (C. difficile NR-49277; C. difficile NR-49277, 1×MIC): ~0.62 log10 | reduction in spore count (C. difficile NR-49277; C. difficile NR-49277, ½×MIC): ~0.56 log10 | reduction in spore count ([1]; C. difficile ATCC BAA-1870, 1×MIC): ~1.24 log10 | reduction in spore count ([1]; C. difficile ATCC BAA-1870, ½×MIC): ~0.74 log10 | reduction in spore count (C. difficile ATCC 43255; C. difficile ATCC 43255, 1×MIC): ~0.99 log10 | reduction in spore count (C. difficile ATCC 43255; C. difficile ATCC 43255, ½×MIC): ~0.38 log10 | MIC of DIHQ combined with metronidazole (C. difficile P19; C. difficile P19): 0.06 µg/mL | MIC of DIHQ combined with vancomycin (C. difficile P19; C. difficile P19): 0.125 µg/mL | MIC alone (C. difficile P19; C. difficile P19, Table 4): 0.5 µg/mL | MIC (C. difficile P19; Clostridioides difficile, C. difficile P19, Table 3, read-out: MIC alone): 0.5 µg/mL | Interpretation (C. difficile P19; [5]): SYN (ΣFIC index ≤0.5 is considered synergistic (SYN)) | ΣFIC Index (C. difficile P19; [5]): 0.24 | Interpretation (C. difficile P19; [6]): SYN (ΣFIC index ≤0.5 is considered synergistic (SYN)) | ΣFIC Index (C. difficile P19; [6]): 0.375 | MIC of DIHQ combined with metronidazole (C. difficile ATCC 1801; C. difficile ATCC 1801): 1 µg/mL | MIC of DIHQ combined with vancomycin (C. difficile ATCC 1801; C. difficile ATCC 1801): 2 µg/mL | MIC alone (C. difficile ATCC 1801; C. difficile ATCC 1801, Table 4): 4 µg/mL | MIC (C. difficile ATCC 1801; Clostridioides difficile, ATCC1801, C. difficile ATCC 1801, Table 3, read-out: MIC alone): 4 µg/mL | Interpretation (C. difficile ATCC 1801; [7]): SYN (ΣFIC index ≤0.5 is considered synergistic (SYN)) | ΣFIC Index (C. difficile ATCC 1801; [7]): 0.37 | Interpretation (C. difficile ATCC 1801; [8]): ADD (ΣFIC index >0.5 − 1.25 is considered additive (ADD)) | ΣFIC Index (C. difficile ATCC 1801; [8]): 0.625 | MIC of DIHQ combined with metronidazole (C. difficile P11 [2]; C. difficile P11): 0.125 µg/mL | MIC of DIHQ combined with vancomycin (C. difficile P11 [2]; C. difficile P11): 0.5 µg/mL | MIC alone (C. difficile P11 [2]; C. difficile P11, Table 4): 0.5 µg/mL | MIC (C. difficile P11 [2]; Clostridioides difficile, C. difficile P11, Table 3, read-out: MIC alone): 0.5 µg/mL | Interpretation (C. difficile P11 [2]; [9]): SYN (ΣFIC index ≤0.5 is considered synergistic (SYN)) | ΣFIC Index (C. difficile P11 [2]; [9]): 0.37 | Interpretation (C. difficile P11 [2]; [10]): ADD (ΣFIC index >0.5 − 1.25 is considered additive (ADD)) | ΣFIC Index (C. difficile P11 [2]; [10]): 1.125 | MIC of DIHQ combined with metronidazole (C. difficile I6; C. difficile I6): 0.125 µg/mL | MIC of DIHQ combined with vancomycin (C. difficile I6; C. difficile I6): 0.5 µg/mL | MIC alone (C. difficile I6; C. difficile I6, Table 4): 2 µg/mL | MIC (C. difficile I6; Clostridioides difficile, C. difficile I6, Table 3, read-out: MIC alone): 2 µg/mL | Interpretation (C. difficile I6; [11]): SYN (ΣFIC index ≤0.5 is considered synergistic (SYN)) | ΣFIC Index (C. difficile I6; [11]): 0.188 | Interpretation (C. difficile I6; [12]): SYN (ΣFIC index ≤0.5 is considered synergistic (SYN)) | ΣFIC Index (C. difficile I6; [12]): 0.375 | MIC of DIHQ combined with metronidazole (C. difficile ATCC 9689; C. difficile ATCC 9689): 0.06 µg/mL | MIC of DIHQ combined with vancomycin (C. difficile ATCC 9689; C. difficile ATCC 9689): 0.06 µg/mL | MIC alone (C. difficile ATCC 9689; C. difficile ATCC 9689, Table 4): 0.125 µg/mL | MIC (C. difficile ATCC 9689; Clostridioides difficile, ATCC9689, C. difficile ATCC 9689, Table 3, read-out: MIC alone): 0.125 µg/mL | Interpretation (C. difficile ATCC 9689; [13]): ADD (ΣFIC index >0.5 − 1.25 is considered additive (ADD)) | ΣFIC Index (C. difficile ATCC 9689; [13]): 0.62 | Interpretation (C. difficile ATCC 9689; [14]): ADD (ΣFIC index >0.5 − 1.25 is considered additive (ADD)) | ΣFIC Index (C. difficile ATCC 9689; [14]): 0.625 | MIC of DIHQ combined with metronidazole (C. difficile P30; C. difficile P30): 0.06 µg/mL | MIC of DIHQ combined with vancomycin (C. difficile P30; C. difficile P30): 0.125 µg/mL | MIC alone (C. difficile P30; C. difficile P30, Table 4): 1 µg/mL | MIC (C. difficile P30; Clostridioides difficile, C. difficile P30, Table 3, read-out: MIC alone): 1 µg/mL | Interpretation (C. difficile P30; [15]): SYN (ΣFIC index ≤0.5 is considered synergistic (SYN)) | ΣFIC Index (C. difficile P30; [15]): 0.185 | Interpretation (C. difficile P30; [16]): SYN (ΣFIC index ≤0.5 is considered synergistic (SYN)) | ΣFIC Index (C. difficile P30; [16]): 0.25 | MBC (C. difficile P11 [3]; read-out: MBC): 0.25 µg/mL (≈ 0.63 µM) | MIC (C. difficile P11 [3]; read-out: MIC): 0.25 µg/mL (≈ 0.63 µM) | MBC (C. difficile P2; read-out: MBC): 0.25 µg/mL (≈ 0.63 µM) | MIC (C. difficile P2; read-out: MIC): 0.25 µg/mL (≈ 0.63 µM) | MBC (C. difficile NR-49286; read-out: MBC): 0.5 µg/mL (≈ 1.26 µM) | MIC (C. difficile NR-49286; read-out: MIC): 0.25 µg/mL (≈ 0.63 µM) | MBC (C. difficile P13; read-out: MBC): 0.5 µg/mL (≈ 1.26 µM) | MIC (C. difficile P13; read-out: MIC): 0.5 µg/mL (≈ 1.26 µM) | MBC (C. difficile NR-49290; read-out: MBC): 0.5 µg/mL (≈ 1.26 µM) | MIC (C. difficile NR-49290; read-out: MIC): 0.25 µg/mL (≈ 0.63 µM) | MBC (C. difficile P1; read-out: MBC): 0.5 µg/mL (≈ 1.26 µM) | MIC (C. difficile P1; read-out: MIC): 0.5 µg/mL (≈ 1.26 µM) | MBC ([4]; read-out: MBC): 1 µg/mL (≈ 2.52 µM) | MIC ([4]; read-out: MIC): 1 µg/mL (≈ 2.52 µM) | MBC (C. difficile P7; read-out: MBC): 0.5 µg/mL (≈ 1.26 µM) | MIC (C. difficile P7; read-out: MIC): 0.5 µg/mL (≈ 1.26 µM) | MBC (C. difficile ATCC 700057; read-out: MBC): 0.5 µg/mL (≈ 1.26 µM) | MIC (C. difficile ATCC 700057; read-out: MIC): 0.5 µg/mL (≈ 1.26 µM) | MBC (C. difficile I2; read-out: MBC): 2 µg/mL (≈ 5.04 µM) | MIC (C. difficile I2; read-out: MIC): 2 µg/mL (≈ 5.04 µM)
